The text below walks through data of patent US8168592B2 (Amgen Inc., priority 2005, dated 2012).

Bridge positions count the residues as written; N and C are the ends. Square brackets hold non-standard residues; d marks the D form. Ends that are not written are not given here. Peptide text beside a SMILES is read from it. Oic = O=C(O)[C@@H]1C[C@@H]2CCCC[C@@H]2N1; 1Nal = N[C@@H](Cc1cccc2ccccc12)C(=O)O; 2Nal = N[C@@H](Cc1ccc2ccccc2c1)C(=O)O; hArg = N=C(N)NCCCC[C@H](N)C(=O)O; Cit = NC(=O)NCCC[C@H](N)C(=O)O

The target of one experiment is T1, CGRP1 receptor (Homo sapiens, UniProt O60894+Q16602).
T1 construct: SK-N-MC cells express CRLR and RAMP1, which form CGRP1 receptor; endogenous in cells; host or cells: SK-N-MC human neuroblastoma cells
T1 sequence (Q16602 23-461): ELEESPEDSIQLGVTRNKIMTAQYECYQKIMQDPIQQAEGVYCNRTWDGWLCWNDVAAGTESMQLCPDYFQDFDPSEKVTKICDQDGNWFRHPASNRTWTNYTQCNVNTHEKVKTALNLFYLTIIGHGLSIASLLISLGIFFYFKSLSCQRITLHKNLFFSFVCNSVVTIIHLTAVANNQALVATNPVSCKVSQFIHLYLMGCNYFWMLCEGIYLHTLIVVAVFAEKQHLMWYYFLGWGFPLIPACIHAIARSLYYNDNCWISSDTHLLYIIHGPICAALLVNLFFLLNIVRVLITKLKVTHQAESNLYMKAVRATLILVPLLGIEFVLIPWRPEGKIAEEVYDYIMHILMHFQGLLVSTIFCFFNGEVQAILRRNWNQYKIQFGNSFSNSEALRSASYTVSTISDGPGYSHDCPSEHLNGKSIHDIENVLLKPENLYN
T1 sequence (O60894 27-148): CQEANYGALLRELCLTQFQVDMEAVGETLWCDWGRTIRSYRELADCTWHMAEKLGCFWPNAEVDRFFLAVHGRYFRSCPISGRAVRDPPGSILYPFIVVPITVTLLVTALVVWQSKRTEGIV
As to the kind of experiment: in vitro CGRP1 receptor mediated cAMP assay in SK-N-MC cells.
Conditions: not given
It counts as cell-based. The essentials:
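Intracellular cAMP served as the Gs-coupled CGRP1 readout in endogenously expressing SK-N-MC cells. After a 15-minute room-temperature step in plasma-free medium, cell lysates (30 minutes, 37° C) went into a competitive ELISA with a cAMP-AP conjugate and anti-cAMP antibody for 1 hour, then a 30-minute substrate enhancer step before reading.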
Background: cAMP levels reflect the balance of adenylyl cyclase and phosphodiesterase activity.
In the case of “SEQ ID NO:28 (WVTHXLAGLLSRSGGVVRKNFVPTDVGPFAF; CGRP peptide; MOD_RES (1)..(1): …ON; MISC_FEATURE (5)..(5): xaa=citrulline; MISC_FEATURE (19)..(19): PEGylated; MOD_RES (31)..(31): AMIDATION)”, the “antagonist activity in cAMP assay, in words” value (from here on “antagonist activity”) is reported as “relatively minor loss of in vitro antagonist activity”.

“SEQ ID NO:2 (CGGGGGGGVTHRLAGLLSRSGGVVKNNFVPTNVGSKAF-NH2)”: the “antagonist activity” value is given as “deleterious to potency”.

Turning to “SEQ ID NO:29 (WVTHRLAGLLSXSGGVVRKNFVPTDVGPFAF; CGRP peptide; MOD_RES (1)..(1): …ON; MISC_FEATURE (12)..(12): xaa=citrulline; MOD_RES (31)..(31): AMIDATION)”, the “antagonist activity” value is recorded as “well tolerated”.

The same experiment, now with this note: Table 2A; read-out: IC50.
For the compound `CC(=O)N[C@@H](Cc1c[nH]c2ccccc12)C(=O)N[C@H](C(=O)N[C@H](C(=O)N[C@@H](Cc1c[nH]cn1)C(=O)N[C@@H](CCCNC(N)=O)C(=O)N[C@@H](CC(C)C)C(=O)N[C@@H](C)C(=O)NCC(=O)N[C@@H](CC(C)C)C(=O)N[C@@H](CC(C)C)C(=O)N[C@@H](CO)C(=O)N[C@@H](CCCNC(N)=O)C(=O)N[C@@H](CO)C(=O)NCC(=O)NCC(=O)N[C@H](C(=O)N[C@H](C(=O)N[C@@H](CCCCNC(=N)N)C(=O)N[C@@H](CCCCN)C(=O)N[C@@H](CC(N)=O)C(=O)N[C@@H](Cc1ccccc1)C(=O)N[C@H](C(=O)N1CCC[C@H]1C(=O)N[C@H](C(=O)N[C@@H](CC(=O)O)C(=O)N[C@H](C(=O)NCC(=O)N1CCC[C@H]1C(=O)N[C@@H](Cc1cccc2ccccc12)C(=O)N[C@@H](C)C(=O)N[C@@H](Cc1ccccc1)C(N)=O)C(C)C)[C@@H](C)O)C(C)C)C(C)C)C(C)C)[C@@H](C)O)C(C)C` [compound 144] (Ac-WVTH[Cit]LAGLLS[Cit]SGGVV[hArg]KNFVPTDVGP[1Nal]AF-NH2), the IC50 (as a rule, the point on the concentration scale where inhibition reaches its midpoint) worked out at 2.24 nM.

For the compound `CC(=O)N[C@@H](Cc1c[nH]c2ccccc12)C(=O)N[C@H](C(=O)N[C@H](C(=O)N[C@@H](Cc1cnc[nH]1)C(=O)N[C@@H](CCCNC(N)=O)C(=O)N[C@@H](CC(C)C)C(=O)N[C@@H](C)C(=O)NCC(=O)N[C@@H](CC(C)C)C(=O)N[C@@H](CC(C)C)C(=O)N[C@@H](CO)C(=O)N[C@@H](CCCNC(N)=O)C(=O)N[C@@H](CO)C(=O)NCC(=O)NCC(=O)N[C@H](C(=O)N[C@H](C(=O)N[C@@H](CCCCNC(=N)N)C(=O)N[C@@H](CCCCN)C(=O)N[C@@H](CC(N)=O)C(=O)N[C@@H](Cc1ccccc1)C(=O)N[C@H](C(=O)N1CCC[C@H]1C(=O)N[C@H](C(=O)N[C@@H](CC(=O)O)C(=O)N[C@H](C(=O)NCC(=O)N1CCC[C@H]1C(=O)N[C@@H](Cc1ccccc1)C(=O)N[C@@H](C)C(=O)N[C@@H](Cc1ccccc1)C(N)=O)C(C)C)[C@@H](C)O)C(C)C)C(C)C)C(C)C)[C@@H](C)O)C(C)C` [compound 653], the IC50 came out at 3.22 nM.

For `CC(=O)N[C@@H](Cc1c[nH]c2ccccc12)C(=O)N[C@H](C(=O)N[C@H](C(=O)N[C@@H](Cc1c[nH]cn1)C(=O)N[C@@H](CCCNC(N)=O)C(=O)N[C@@H](CC(C)C)C(=O)N[C@@H](C)C(=O)NCC(=O)N[C@@H](CC(C)C)C(=O)N[C@@H](CC(C)C)C(=O)N[C@@H](CO)C(=O)N[C@@H](CCCNC(N)=O)C(=O)N[C@@H](CO)C(=O)NCC(=O)NCC(=O)N[C@H](C(=O)N[C@H](C(=O)N[C@@H](CCCCNC(=N)N)C(=O)N[C@@H](CCCCN)C(=O)N[C@@H](CC(N)=O)C(=O)N[C@@H](Cc1ccccc1)C(=O)N[C@H](C(=O)N1[C@H](C(=O)N[C@H](C(=O)N[C@@H](CC(=O)O)C(=O)N[C@H](C(=O)NCC(=O)N2[C@H](C(=O)N[C@@H](Cc3ccccc3)C(=O)N[C@@H](C)C(=O)N[C@@H](Cc3ccc4ccccc4c3)C(N)=O)C[C@@H]3CCCC[C@@H]32)C(C)C)[C@@H](C)O)C[C@@H]2CCCC[C@@H]21)C(C)C)C(C)C)C(C)C)[C@@H](C)O)C(C)C` [compound 132] (Ac-WVTH[Cit]LAGLLS[Cit]SGGVV[hArg]KNFV[Oic]TDVG[Oic]FA[2Nal]-NH2), the IC50 was 2.57 nM.

Consider `CC(=O)N[C@@H](Cc1c[nH]c2ccccc12)C(=O)N[C@H](C(=O)N[C@H](C(=O)N[C@@H](Cc1c[nH]cn1)C(=O)N[C@@H](CCCNC(N)=O)C(=O)N[C@@H](CC(C)C)C(=O)N[C@@H](C)C(=O)NCC(=O)N[C@@H](CC(C)C)C(=O)N[C@@H](CC(C)C)C(=O)N[C@@H](CO)C(=O)N[C@@H](CCCNC(N)=O)C(=O)N[C@@H](CO)C(=O)NCC(=O)NCC(=O)N[C@H](C(=O)N[C@H](C(=O)N[C@@H](CCCCNC(=N)N)C(=O)N[C@@H](CCCCN)C(=O)N[C@@H](CC(N)=O)C(=O)N[C@@H](Cc1ccccc1)C(=O)N[C@H](C(=O)N1[C@H](C(=O)N[C@H](C(=O)N[C@@H](CC(=O)O)C(=O)N[C@H](C(=O)NCC(=O)N2CCC[C@H]2C(=O)N[C@@H](Cc2cccc3ccccc23)C(=O)N[C@@H](C)C(=O)N[C@@H](Cc2ccc3ccccc3c2)C(N)=O)C(C)C)[C@@H](C)O)C[C@@H]2CCCC[C@@H]21)C(C)C)C(C)C)C(C)C)[C@@H](C)O)C(C)C` [compound 133] (Ac-WVTH[Cit]LAGLLS[Cit]SGGVV[hArg]KNFV[Oic]TDVGP[1Nal]A[2Nal]-NH2), for which the IC50 is 2.73 nM.

Regarding `CC(=O)N[C@@H](Cc1c[nH]c2ccccc12)C(=O)N[C@H](C(=O)N[C@H](C(=O)N[C@@H](Cc1c[nH]cn1)C(=O)N[C@@H](CCCNC(N)=O)C(=O)N[C@@H](CC(C)C)C(=O)N[C@@H](C)C(=O)NCC(=O)N[C@@H](CC(C)C)C(=O)N[C@@H](CC(C)C)C(=O)N[C@@H](CO)C(=O)N[C@@H](CCCNC(N)=O)C(=O)N[C@@H](CO)C(=O)NCC(=O)NCC(=O)N[C@H](C(=O)N[C@H](C(=O)N[C@@H](CCCCNC(=N)N)C(=O)N[C@@H](CCCCN)C(=O)N[C@@H](CC(N)=O)C(=O)N[C@@H](Cc1ccc2ccccc2c1)C(=O)N[C@H](C(=O)N1CCC[C@H]1C(=O)N[C@H](C(=O)N[C@@H](CC(=O)O)C(=O)N[C@H](C(=O)NCC(=O)N1[C@H](C(=O)N[C@@H](Cc2ccccc2)C(=O)N[C@@H](C)C(=O)N[C@@H](Cc2ccccc2)C(N)=O)C[C@@H]2CCCC[C@@H]21)C(C)C)[C@@H](C)O)C(C)C)C(C)C)C(C)C)[C@@H](C)O)C(C)C` [compound 137] (Ac-WVTH[Cit]LAGLLS[Cit]SGGVV[hArg]KN[2Nal]VPTDVG[Oic]FAF-NH2), the IC50 turned out to be 2.66 nM.

Still in this experiment, the particulars now being: Table 2C; unconjugated peptide; read-out: Peptide IC50.
For the compound `CC(=O)N[C@@H](Cc1c[nH]c2ccccc12)C(=O)N[C@H](C(=O)N[C@H]1CCC(=O)NCCCC[C@@H](C(=O)NCC(=O)N[C@@H](CC(C)C)C(=O)N[C@@H](CC(C)C)C(=O)N[C@@H](CO)C(=O)N[C@@H](CCCNC(N)=O)C(=O)N[C@@H](CO)C(=O)NCC(=O)NCC(=O)N[C@H](C(=O)N[C@H](C(=O)N[C@@H](CCCCNC(=N)N)C(=O)N[C@@H](CCCCN)C(=O)N[C@@H](CC(N)=O)C(=O)N[C@@H](Cc2ccccc2)C(=O)N[C@H](C(=O)N2CCC[C@H]2C(=O)N[C@H](C(=O)N[C@@H](CC(=O)O)C(=O)N[C@H](C(=O)NCC(=O)N2CCC[C@H]2C(=O)N[C@@H](Cc2ccccc2)C(=O)N[C@@H](C)C(=O)N[C@@H](Cc2ccccc2)C(N)=O)C(C)C)[C@@H](C)O)C(C)C)C(C)C)C(C)C)NC(=O)[C@H](CC(C)C)NC(=O)[C@H](CCCCNC(=N)N)NC(=O)[C@H](Cc2c[nH]cn2)NC1=O)C(C)C` [compound 908] (Ac-WVEH[hArg]LKGLLS[Cit]SGGVV[hArg]KNFVPTDVGPFAF-NH2; lactam 3-7), the IC50 is 1.28 nM.

For the compound “Ac-WVTHRLAGLLSRPGGVVRKNFVPTDVGPFAF-NH2 [compound 860]”, the IC50 turned out to be 1.42 nM.

`CC(=O)N[C@@H](Cc1c[nH]c2ccccc12)C(=O)N[C@H](C(=O)N[C@H](C(=O)N[C@@H](Cc1c[nH]cn1)C(=O)N[C@@H](CCCCNC(=N)N)C(=O)N[C@@H](CC(C)C)C(=O)N[C@@H](C)C(=O)NCC(=O)N[C@@H](CC(C)C)C(=O)N[C@@H](CC(C)C)C(=O)N[C@@H](CO)C(=O)N[C@@H](CCCNC(=N)N)C(=O)N[C@@H](CO)C(=O)NCC(=O)NCC(=O)N[C@H](C(=O)N[C@H](C(=O)N[C@@H](CCCNC(=N)N)C(=O)N[C@@H](CCCCN)C(=O)N[C@@H](CC(N)=O)C(=O)N[C@@H](Cc1ccccc1)C(=O)N[C@H](C(=O)N1CCC[C@H]1C(=O)N[C@H](C(=O)N[C@@H](CC(=O)O)C(=O)N[C@H](C(=O)NCC(=O)N1CCC[C@H]1C(=O)N[C@@H](Cc1ccccc1)C(=O)N[C@@H](C)C(=O)N[C@@H](Cc1ccccc1)C(N)=O)C(C)C)[C@@H](C)O)C(C)C)C(C)C)C(C)C)[C@@H](C)O)C(C)C` [compound 865]: the IC50 stood at 0.44 nM.

Turning to `CC(=O)N[C@@H](Cc1c[nH]c2ccccc12)C(=O)N[C@H](C(=O)N[C@H]1CCC(=O)NCCCC[C@@H](C(=O)NCC(=O)N[C@@H](CC(C)C)C(=O)N[C@@H](CC(C)C)C(=O)N[C@@H](CO)C(=O)N[C@@H](CCCNC(N)=O)C(=O)N[C@@H](CO)C(=O)NCC(=O)NCC(=O)N[C@H](C(=O)N[C@H](C(=O)N[C@@H](CCCCNC(=N)N)C(=O)N[C@@H](CCCCN)C(=O)N[C@@H](CC(N)=O)C(=O)N[C@@H](Cc2ccccc2)C(=O)N[C@H](C(=O)N2CCC[C@H]2C(=O)N[C@H](C(=O)N[C@@H](CC(=O)O)C(=O)N[C@H](C(=O)NCC(=O)N2CCC[C@H]2C(=O)N[C@@H](Cc2ccccc2)C(=O)N[C@@H](C)C(=O)N[C@@H](Cc2ccccc2)C(N)=O)C(C)C)[C@@H](C)O)C(C)C)C(C)C)C(C)C)NC(=O)[C@H](CC(C)C)NC(=O)[C@H](CCCNC(N)=O)NC(=O)[C@H](Cc2c[nH]cn2)NC1=O)C(C)C` [compound 907] (Ac-WVEH[Cit]LKGLLS[Cit]SGGVV[hArg]KNFVPTDVGPFAF-NH2; lactam 3-7), the IC50 was determined as 0.83 nM.

For the compound “Ac-WVTHRLAGLLSRSGGVVRKNFVPTDVGSKAF-NH2 [compound 915]”, the IC50 stood at 1.15 nM.

Staying with this experiment, now noted: cAMP assay.
In the case of “SEQ ID NO:4 (WVTHRLAGLLSRSGGVVKNNFVPTNVGSKAF-NH2)”, the “improved potency relative to native CGRP(8-37) (SEQ ID NO:1)” value is “greater than 7 fold”.
